Test results: PubChem BioAssay (NCI)
Values joined by “and” are separate entries in the source; they are usually repeats but may differ in a detail not shown here. Identical values can stand only once.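 Method: 48-hour compound exposure of cells in 96-well plates, five concentrations, linear interpolation of endpoints. GI50 = concentration required for 50% inhibition of growth. Definition used: TGI = concentration required for complete inhibition of growth.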

What was measured:
Test in all cases: NCI anticancer screen, dose series, 48 h
SF-295 CNS = system: SF-295 CNS
TK-10 renal = system: TK-10 renal
IGROV1 ovarian = system: IGROV1 ovarian
T-47D breast = system: T-47D breast
OVCAR-8 ovarian = system: OVCAR-8 ovarian
MALME-3M melanoma = system: MALME-3M melanoma
SNB-19 CNS = system: SNB-19 CNS
SN12C renal = system: SN12C renal
NCI-H226 lung = system: NCI-H226 lung

SMILES: Cc1cc2nc(NS(=O)(=O)c3cc(C)c(Cl)cc3S)[nH]c2cc1C
- TGI (SF-295 CNS): > 100 µM
- TGI (TK-10 renal): > 100 µM
- TGI (IGROV1 ovarian): > 100 µM
- TGI (T-47D breast): > 100 µM
- TGI (OVCAR-8 ovarian): > 100 µM
- TGI (MALME-3M melanoma): > 100 µM
- TGI (SNB-19 CNS): > 100 µM
- TGI (SN12C renal): > 100 µM

SMILES: COc1ccc(-c2c(C(C)=O)c(-c3ccccc3)n(C3OC(COC(C)=O)C(OC(C)=O)C(OC(C)=O)C3OC(C)=O)c(=S)c2C#N)cc1O (centres undefined)
- TGI (SF-295 CNS): > 100 µM
- GI50 (IGROV1 ovarian): 12.4 µM and 38.2 µM
- TGI (IGROV1 ovarian): 35.6 µM and > 100 µM
- TGI (MALME-3M melanoma): 40.5 µM and 55.9 µM
- TGI (SNB-19 CNS): > 100 µM
- TGI (SN12C renal): > 100 µM

SMILES: Cc1ccc(-c2nc3n(c2/C=N\N=C(N)N)CCS3)cc1
- TGI (SF-295 CNS): 24.6 µM
- TGI (TK-10 renal): 33.1 µM
- TGI (IGROV1 ovarian): 28.3 µM
- TGI (T-47D breast): 29 µM
- TGI (OVCAR-8 ovarian): 29.3 µM
- TGI (MALME-3M melanoma): 31.2 µM
- TGI (SNB-19 CNS): 28.5 µM
- TGI (SN12C renal): 29.6 µM

SMILES: CC(Nc1cc(=O)n(C)c(=O)[nH]1)c1ccccc1 (centres undefined)
- TGI (SF-295 CNS): > 100 µM
- TGI (TK-10 renal): > 100 µM
- TGI (IGROV1 ovarian): > 100 µM
- TGI (T-47D breast): > 100 µM
- TGI (OVCAR-8 ovarian): > 100 µM
- TGI (SNB-19 CNS): > 100 µM
- TGI (SN12C renal): > 100 µM

SMILES: CCCCCCCCC[C@@H]1C[C@@H]2CCC3C(C(=O)OCCCCNC(=O)OCc4ccccc4)=C(C)NC(=N1)N32 (some centres undefined)
- TGI (SF-295 CNS): 11.2 µM
- TGI (TK-10 renal): 17.7 µM
- TGI (IGROV1 ovarian): 6.11 µM
- TGI (T-47D breast): 10.6 µM
- TGI (OVCAR-8 ovarian): 8.7 µM
- TGI (NCI-H226 lung): 11.6 µM
- TGI (SNB-19 CNS): 29.4 µM
- TGI (SN12C renal): 10.7 µM

SMILES: COc1ccc(CCNC(=S)/N=C\C2=C(O)c3ccccc3C2=O)cc1OC
- TGI (SF-295 CNS): > 100 µM
- TGI (IGROV1 ovarian): > 100 µM
- TGI (T-47D breast): > 100 µM
- TGI (OVCAR-8 ovarian): > 100 µM
- TGI (NCI-H226 lung): > 100 µM
- TGI (MALME-3M melanoma): > 100 µM
- TGI (SNB-19 CNS): > 100 µM
- TGI (SN12C renal): > 100 µM

SMILES: CCC(c1nc2ccccc2c(=O)n1NC(=O)C(C)(C)C)C1(O)CCCCC1 (centres undefined)
- TGI (SF-295 CNS): > 100 µM
- TGI (IGROV1 ovarian): > 100 µM
- TGI (T-47D breast): > 100 µM
- TGI (OVCAR-8 ovarian): > 100 µM
- TGI (NCI-H226 lung): > 100 µM
- TGI (MALME-3M melanoma): > 100 µM
- TGI (SNB-19 CNS): > 100 µM
- TGI (SN12C renal): > 100 µM

SMILES: S=C1NC2=C(COC/C2=C\c2ccccc2Cl)C(c2ccccc2Cl)N1 (centres undefined)
- TGI (SF-295 CNS): > 100 µM
- TGI (TK-10 renal): > 100 µM
- TGI (IGROV1 ovarian): > 100 µM
- TGI (T-47D breast): > 100 µM
- TGI (OVCAR-8 ovarian): > 100 µM
- TGI (NCI-H226 lung): > 100 µM
- TGI (SNB-19 CNS): > 100 µM
- TGI (SN12C renal): > 100 µM

SMILES: CC(C)(CO)NC(=O)c1cccc(C(=O)NC(C)(C)CO)c1Br
- TGI (TK-10 renal): > 100 µM
- TGI (IGROV1 ovarian): > 100 µM
- TGI (T-47D breast): > 100 µM
- TGI (OVCAR-8 ovarian): > 100 µM
- TGI (NCI-H226 lung): > 100 µM
- TGI (MALME-3M melanoma): > 100 µM
- TGI (SNB-19 CNS): > 100 µM

SMILES: Cc1noc(C)c1N=Nc1ccc2nonc2c1N
- TGI (SF-295 CNS): > 100 µM
- TGI (TK-10 renal): > 100 µM
- TGI (IGROV1 ovarian): > 100 µM
- TGI (T-47D breast): > 100 µM
- TGI (OVCAR-8 ovarian): > 100 µM
- TGI (MALME-3M melanoma): > 100 µM
- TGI (SNB-19 CNS): > 100 µM
- TGI (SN12C renal): > 100 µM

SMILES: Cc1cc(O)c(/C=N/C(=O)NN)c(=O)o1
- TGI (SF-295 CNS): > 100 µM
- TGI (TK-10 renal): > 100 µM
- TGI (IGROV1 ovarian): > 100 µM
- TGI (OVCAR-8 ovarian): > 100 µM
- TGI (SNB-19 CNS): > 100 µM
- TGI (SN12C renal): > 100 µM

SMILES: C[n+]1c(-c2ccc(/C=N/Nc3n[nH]c(=S)n3N/N=C/c3ccc(-c4cn5ccccc5[n+]4C)cc3)cc2)cn2ccccc21
- TGI (SF-295 CNS): > 100 µM
- TGI (TK-10 renal): > 100 µM
- TGI (IGROV1 ovarian): > 100 µM
- TGI (T-47D breast): > 100 µM
- TGI (OVCAR-8 ovarian): > 100 µM
- TGI (SNB-19 CNS): > 100 µM
- TGI (SN12C renal): > 100 µM
